In patent US20060252026A1, “Cryopreservation method for bivalve oocytes” (priority 2005, published 2006):

Key:
[1] = test system: Pacific oyster (Crassostrea gigas) oocytes; assay: Post-thaw fertilisation assay of cryopreserved oocytes; assay type: cell-based; conditions: for post-thaw fertilisation rate: Example 2.9, ten percent EG
Method: Cryopreservation straws (0.25 cc, IMV, France) were then loaded with the solution containing oocytes and CPA, sealed with PVC powder and laid flat on a rack. The total time at room temperature was 20 min. Loaded straws were placed into Cryogenesis freezers (Cryologic Pty Ltd, Mt Waverly, Australia) and held at 0° C. for 5 min. […] Following the hold period, the freezers were then programmed to cool at various rates (standard: 1° C. min^-1) to -35° C. at which temperature the straws were plunged into liquid nitrogen and stored. After up to 24 h storage, the straws were thawed by placing into a water bath at 28° C. […] After dilution, the thawed oocytes along with unfrozen oocytes from the same batch (controls) were fertilised using the miniaturised fertilisation assay described previously ([…] Smith, R D Roberts, A R Janke, […] Pugh, S C Webb, N G King, Aquaculture (2004) 242, 271). […] Duplicate assays were conducted on each straw and assays included a negative control where no sperm were added to check for parthenogenetic activation. […] All CPA concentrations are the final post-dilution levels. Fertilisation results from each experiment were used to determine factors to be evaluated in subsequent experiments. […] Each pool comprised oocytes from 4 to 8 oysters. […] Three new pools were selected from 11 available pools for Examples 2.4 to 2.6.

[2] = test system: Pacific oyster (Crassostrea gigas) oocytes; conditions: Example 2.7
Method: Approximately 2.2 million unfrozen or thawed oocytes from 8 individuals were added to 500 mL of SW and fertilised at a ratio of 100 sperm per oocyte. After a contact time of ˜12 min, the fertilised oocytes were transferred into tanks containing 150 L of SW and 1 mg L^−1 EDTA at 23° C. After 24 h, the tanks were drained through a 45-μm mesh and subsamples taken to determine the percentage of oocytes reaching D-larvae in each treatment.
The number of D-larvae was standardized for each female so that the four rearing tanks (2×cryopreserved and 2×unfrozen) all contained the same number of larvae. The larvae were resuspended in 2.5 L tanks in a continuous exchange larval rearing system and fed a mixed diet of Chaetoceros calcitrans and Isochrisis galbana (A Janke, H Kaspar, N King, S Foster, Abstracts of the World Aquaculture Society Conference, 1st-4th Mar. 2004, Hawaii, World Aquaculture Society, Louisiana State University, Baton Rouge, La., (2004), 312). Tanks were cleaned and larvae screened every second day to remove dead, abnormal or slow-growing larvae. Competent larvae were induced to metamorphose by bath application of 10^−4 M epinephrine (S L Coon, D B Bonar, Journal of Experimental Marine Biology and Ecology, (1985), 94, 211) for 3 to 5 h. […] The number of D-larvae in each treatment that developed to eyed larvae stage and spat was determined. […]

Pacific oyster oocytes [3] = conditions: Me2SO as CPA in the presence of trehalose; cited from earlier work
Pacific oyster oocytes [4] = conditions: Me2SO as CPA; cited from earlier work
[5] = test system: Eastern Oyster (Crassostrea virginica) oocytes; conditions: Me2SO or sucrose as CPA; cited from earlier work

SMILES: OCCO [EG, ethylene glycol]
- post-thaw fertilisation ([1]; Example 2.10, 10% EG in MQ, thawed in water bath at 3° C.): 79%
- post-thaw fertilisation ([1]; Example 2.10, 10% EG in MQ, thawed in water bath at 28° C.): 71%
- post-thaw fertilisation ([1]; Example 2.10, 10% EG in MQ, thawed in water bath at 60° C.): 61%
- post-thaw fertilisation ([1]; Example 2.10, 10% EG in MQ, thawed in water bath at 90° C.): 52%
- oocyte fertilisation post-thaw ([1]; Example 2.1, 100% EG (so in the source) in MQ with 0.85% w/v PVP, standard freezing/thawing): Highest fertilisation rates
- oocyte fertilisation post-thaw, effect of holding temperature ([1]; Example 2.5, 10% EG in MQ, holding for 5 min at either −10 or −12° C.): best results
- oocyte fertilisation post-thaw, effect of freezing rate ([1]; Example 2.6, 10% EG in MQ, slowest post-hold cooling rate (0.3° C. min−1)): best results
- oocyte fertilisation post-thaw ([1]; Example 2.7, 10% EG in MQ, no PVP, −10° C. hold, 0.3° C. min−1 to −35° C., mean±se): 52.1±1.2%
- post-thaw fertilisation ([1]; Example 2.8, 10% EG in MQ, plunging at −25° C.): 5%
- post-thaw fertilisation ([1]; Example 2.8, 10% EG in MQ, plunging at −35° C.): 72%
- post-thaw fertilisation ([1]; Example 2.8, 10% EG in MQ, plunging at −45° C.): 76%
- post-thaw fertilisation rate ([1]; held at −16° C. for 5 min): 31%
- post-thaw fertilisation rate ([1]; held at −20° C. for 5 min): 3%
- percentage of fertilised oocytes developing to D-larvae, fresh versus cryopreserved ([2]; P=0.126): no significant difference
- proportion of larvae developing to eyed larvae or spat, fresh versus cryopreserved ([2]; P=0.516 and 0.418): no difference

SMILES: C[S+](C)[O-] [Me2SO, dimethyl sulfoxide]
- oocyte fertilisation post-thaw ([1]; Example 2.1, 15% Me2SO in MQ with 0.85% w/v PVP, standard freezing/thawing): Highest fertilisation rates
- fertilisation achieved with the thawed oocytes (Pacific oyster oocytes [3]): less than 0.5%
- thawed oocytes developing to D-larvae (Pacific oyster oocytes [3]): less than 0.005%
- outcome of cryopreservation attempt (Pacific oyster oocytes [4]): entirely unsuccessful
- fertilisation of oocytes after cryopreservation [5]: none of the oocytes were able to be fertilised
- oocytes staining as live after cryopreservation [5]: 7%

SMILES: CO [methanol]
- oocyte fertilisation post-thaw ([1]; Example 2.1, methanol 2.5, 5, 10% v/v in MQ with 0.85% w/v PVP, standard freezing/thawing): No oocytes were fertilised

SMILES: OC[C@H]1O[C@@](CO)(O[C@H]2O[C@H](CO)[C@@H](O)[C@H](O)[C@H]2O)[C@@H](O)[C@@H]1O [sucrose]
- fertilisation of oocytes after cryopreservation [5]: none of the oocytes were able to be fertilised
- oocytes staining as live after cryopreservation [5]: 7%

SMILES: OC[C@H]1O[C@H](O[C@H]2O[C@H](CO)[C@@H](O)[C@H](O)[C@H]2O)[C@H](O)[C@@H](O)[C@@H]1O [trehalose]
- effect on oocyte fertilisation post-thaw ([1]; Example 2.2, trehalose above 0.1 M added to 10% EG in MQ): significant reduction in fertilisation
